In patent publication US20220047494A1, “ANTIBACTERIAL, DEODORIZATION, EASING OF ACNE AND ATOPY OR SKIN CALMING-FUNCTIONAL COMPOSITION FOR Y-ZONE CLEANLINESS CONTAINING QUERCUS ACUTISSIMA SAP AND ZINC RICINOLEATE” (MEDICLASSIC.CO.LTD, priority 2020, published 2022):

System: Staphylococcus epidermidis (KTTC12228)
Assay: Paper disk diffusion antibacterial activity
Type: cell-based
Conditions: paper disk 8 mm, mean ± SD (n = 3)
Text: In Experimental Example according to the present invention, Propionibacterium acnes (KCTC3314), which is an acne-causing pathogen, Candida albicans (ATCC 10231), which is a yeast that causes inflammatory or bacterial skin diseases, and Staphylococcus epidermidis (KTTC12228), which is gram-positive skin flora, were used. Propionibacterium acnes (KCTC3314) was inoculated into reinforced clostridial (RC) medium, sealed using a […] system in an anaerobic culture tank, and then anaerobically cultured at 37° C. for two days. As an aerobic strain of Candida albicans (ATCC 10231), Sabaurd Dextrose Agar (Difco. USA) was used, inoculated with the bacteria, and cultured in an incubator at 25° C. for 24 hours. As an aerobic strain, Staphylococcus epidermidis (KTTC12228) was inoculated into Mueller-Hinton medium and cultured at 37° C. for 24 hours before use. With respect to the ingredients according to Preparation Example and Comparative Preparation Example, an antibacterial activity against Staphylococcus epidermidis (KTC12228) was measured by using a paper disk diffusion method. Specifically, the evaluation of antibacterial activity against Staphylococcus epidermidis (KTTC12228), which is a secondary acne-causing pathogen, was performed by carrying out a cultivation with Muller-Hinton medium at 37° C. for 24 hours, and evenly spreading a bacterial suspension adjusted at a constant concentration (absorbance of 0.5 at an optical density of 620 nm) on an RC agar plate using a sterile cotton swab. After that, the plate was dried and a paper disk (Φ 8 mm, […]. USA) was placed on the surface of the plate inoculated with the strain, after which samples according to Preparation Example 2 and Comparative Preparation Examples 1 to 4, the positive control tetracycline and a mixed sample of Preparation Examples 1 and 2 (6:4) were absorbed thereon for each concentration. The sample-treated plate was cultured in an anaerobic culture tank for three days using the […] system, after which the antibacterial activity was measured by the size of the inhibition zone around the disk, and the results thereof are shown in table 2 below, respectively.

With `CN(C)[C@@H]1C(O)=C(C(N)=O)C(=O)[C@@]2(O)C(O)=C3C(=O)c4c(O)cccc4[C@@](C)(O)[C@H]3C[C@@H]12` [Tetracycline, tetracycline] the zone of inhibition at 1000 µg/disc (Staphylococcus epidermidis, concentration 1 mg, read-out: Zone of inhibition (diameter in mm)) was roughly 12 mm, the zone of inhibition at 5000 µg/disc (Staphylococcus epidermidis, concentration 5 mg, read-out: Zone of inhibition (diameter in mm)) was roughly 14 mm and the “Zone of inhibition (diameter in mm)” value (concentration 1 mg) was 12.82 ± 0.43 mm. The “Zone of inhibition (diameter in mm)” value (concentration 5 mg) was 14.92 ± 0.23 mm.
